Experiment: mn = molality of the nth substance listed, in mol/kg
Conditions: 101 kPa, Liquid

Cc1ccccc1C [1,2-dimethylbenzene] + CC1=CC(=O)c2ccccc2C1=O
m2 = 0
Conditions | mass density [kg/m3] | viscosity [mPa·s]
303.15 K | 872.1 | 0.7404
308.15 K | 867.7 | 0.69
313.15 K | 864 | 0.6451
318.15 K | 859.7 | 0.6117
323.15 K | 855.5 | 0.5711
328.15 K | 851.2 | 0.5433
333.15 K | 847.1 | 0.5105

Cc1cccc(C)c1 [1,3-dimethylbenzene] + CC1=CC(=O)c2ccccc2C1=O
m2 = 0
Conditions | mass density [kg/m3] | viscosity [mPa·s]
303.15 K | 855.6 | 0.549
308.15 K | 851.1 | 0.5201
313.15 K | 846.9 | 0.4967
318.15 K | 842.4 | 0.4817
323.15 K | 838.3 | 0.444
328.15 K | 833.7 | 0.435
333.15 K | 829.6 | 0.413

Cc1ccc(C)cc1 [1,4-dimethylbenzene] + CC1=CC(=O)c2ccccc2C1=O
m2 = 0
Conditions | mass density [kg/m3] | viscosity [mPa·s]
303.15 K | 852 | 0.5726
308.15 K | 847.7 | 0.5374
313.15 K | 843.2 | 0.5178
318.15 K | 838.7 | 0.4882
323.15 K | 834.5 | 0.4595
328.15 K | 829.9 | 0.4439
333.15 K | 825.6 | 0.4189

CC1=CC(=O)c2ccccc2C1=O [2-methyl-1,4-naphthalenedione] + CCc1ccccc1
Conditions | mass density [kg/m3] | viscosity [mPa·s]
303.15 K, m1 = 0.0451 | 859.9 | 0.6083
303.15 K, m1 = 0.0903 | 861.8 | 0.6164
303.15 K, m1 = 0.1354 | 863.7 | 0.6218
303.15 K, m1 = 0.1805 | 865.6 | 0.6317
303.15 K, m1 = 0.2256 | 867.5 | 0.6333
303.15 K, m1 = 0.271 | 869.4 | 0.6361
308.15 K, m1 = 0.0451 | 855.4 | 0.5735
308.15 K, m1 = 0.0903 | 857.3 | 0.5794
308.15 K, m1 = 0.1354 | 859.2 | 0.5853
308.15 K, m1 = 0.1805 | 861.1 | 0.5893
308.15 K, m1 = 0.2256 | 863 | 0.5948
308.15 K, m1 = 0.271 | 864.9 | 0.5991
313.15 K, m1 = 0.0451 | 851.4 | 0.5439
313.15 K, m1 = 0.0903 | 853.3 | 0.5484
313.15 K, m1 = 0.1354 | 855.2 | 0.5543
313.15 K, m1 = 0.1805 | 857.1 | 0.557
313.15 K, m1 = 0.2256 | 859 | 0.5611
313.15 K, m1 = 0.271 | 860.9 | 0.5673
318.15 K, m1 = 0.0451 | 846.6 | 0.5104
318.15 K, m1 = 0.0903 | 848.5 | 0.5148
318.15 K, m1 = 0.1354 | 850.4 | 0.5192
318.15 K, m1 = 0.1805 | 852.3 | 0.5241
318.15 K, m1 = 0.2256 | 854.2 | 0.5283
318.15 K, m1 = 0.271 | 856.1 | 0.533
323.15 K, m1 = 0.0451 | 842.4 | 0.4832
323.15 K, m1 = 0.0903 | 844.3 | 0.4881
323.15 K, m1 = 0.1354 | 846.2 | 0.4937
323.15 K, m1 = 0.1805 | 848.1 | 0.4969
323.15 K, m1 = 0.2256 | 850 | 0.5015
323.15 K, m1 = 0.271 | 851.9 | 0.5054
328.15 K, m1 = 0.0451 | 837.8 | 0.4615
328.15 K, m1 = 0.0903 | 839.7 | 0.4648
328.15 K, m1 = 0.1354 | 841.6 | 0.4715
328.15 K, m1 = 0.1805 | 843.5 | 0.474
328.15 K, m1 = 0.2256 | 845.4 | 0.4758
328.15 K, m1 = 0.271 | 847.3 | 0.4806
333.15 K, m1 = 0.0451 | 833.5 | 0.4405
333.15 K, m1 = 0.0903 | 835.4 | 0.444
333.15 K, m1 = 0.1354 | 837.3 | 0.4475
333.15 K, m1 = 0.1805 | 839.2 | 0.451
333.15 K, m1 = 0.2256 | 841.1 | 0.4546
333.15 K, m1 = 0.271 | 843 | 0.4581

CC1=CC(=O)c2ccccc2C1=O [2-methyl-1,4-naphthalenedione] + Cc1ccc(C)cc1
Conditions | mass density [kg/m3] | viscosity [mPa·s]
303.15 K, m1 = 0.0454 | 854 | 0.5859
303.15 K, m1 = 0.0902 | 856 | 0.5904
303.15 K, m1 = 0.1361 | 858.1 | 0.5958
303.15 K, m1 = 0.1815 | 860.1 | 0.6048
303.15 K, m1 = 0.2267 | 862.1 | 0.6092
303.15 K, m1 = 0.2724 | 864.1 | 0.6161
308.15 K, m1 = 0.0454 | 849.7 | 0.5528
308.15 K, m1 = 0.0902 | 851.7 | 0.5581
308.15 K, m1 = 0.1361 | 853.8 | 0.5631
308.15 K, m1 = 0.1815 | 855.8 | 0.5716
308.15 K, m1 = 0.2267 | 857.8 | 0.5748
308.15 K, m1 = 0.2724 | 859.8 | 0.582
313.15 K, m1 = 0.0454 | 845.2 | 0.5222
313.15 K, m1 = 0.0902 | 847.2 | 0.5274
313.15 K, m1 = 0.1361 | 849.3 | 0.5349
313.15 K, m1 = 0.1815 | 851.3 | 0.5396
313.15 K, m1 = 0.2267 | 853.3 | 0.543
313.15 K, m1 = 0.2724 | 855.3 | 0.5477
318.15 K, m1 = 0.0454 | 840.7 | 0.4999
318.15 K, m1 = 0.0902 | 842.7 | 0.5047
318.15 K, m1 = 0.1361 | 844.8 | 0.5097
318.15 K, m1 = 0.1815 | 846.8 | 0.5152
318.15 K, m1 = 0.2267 | 848.8 | 0.5183
318.15 K, m1 = 0.2724 | 850.8 | 0.5242
323.15 K, m1 = 0.0454 | 836.5 | 0.4686
323.15 K, m1 = 0.0902 | 838.5 | 0.4737
323.15 K, m1 = 0.1361 | 840.6 | 0.477
323.15 K, m1 = 0.1815 | 842.6 | 0.4824
323.15 K, m1 = 0.2267 | 844.6 | 0.4864
323.15 K, m1 = 0.2724 | 846.6 | 0.4907
328.15 K, m1 = 0.0454 | 831.9 | 0.4467
328.15 K, m1 = 0.0902 | 833.9 | 0.4509
328.15 K, m1 = 0.1361 | 836 | 0.456
328.15 K, m1 = 0.1815 | 838 | 0.4615
328.15 K, m1 = 0.2267 | 840 | 0.4633
328.15 K, m1 = 0.2724 | 842 | 0.4698
333.15 K, m1 = 0.0454 | 827.6 | 0.4225
333.15 K, m1 = 0.0902 | 829.6 | 0.4258
333.15 K, m1 = 0.1361 | 831.7 | 0.4309
333.15 K, m1 = 0.1815 | 833.7 | 0.4364
333.15 K, m1 = 0.2267 | 835.7 | 0.4384
333.15 K, m1 = 0.2724 | 837.7 | 0.4429

CC1=CC(=O)c2ccccc2C1=O [2-methyl-1,4-naphthalenedione] + Cc1cccc(C)c1
Conditions | mass density [kg/m3] | viscosity [mPa·s]
303.15 K, m1 = 0.0452 | 857.6 | 0.5673
303.15 K, m1 = 0.0902 | 859.6 | 0.5771
303.15 K, m1 = 0.1352 | 861.6 | 0.5802
303.15 K, m1 = 0.1802 | 863.6 | 0.5844
303.15 K, m1 = 0.2254 | 865.6 | 0.5902
303.15 K, m1 = 0.272 | 867.7 | 0.6031
308.15 K, m1 = 0.0452 | 853.1 | 0.5351
308.15 K, m1 = 0.0902 | 855.1 | 0.5422
308.15 K, m1 = 0.1352 | 857.1 | 0.5467
308.15 K, m1 = 0.1802 | 859.1 | 0.5523
308.15 K, m1 = 0.2254 | 861.1 | 0.5566
308.15 K, m1 = 0.272 | 863.2 | 0.5654
313.15 K, m1 = 0.0452 | 848.9 | 0.5098
313.15 K, m1 = 0.0902 | 850.9 | 0.5144
313.15 K, m1 = 0.1352 | 852.9 | 0.5188
313.15 K, m1 = 0.1802 | 854.9 | 0.5237
313.15 K, m1 = 0.2254 | 856.9 | 0.5284
313.15 K, m1 = 0.272 | 859 | 0.5352
318.15 K, m1 = 0.0452 | 844.4 | 0.4864
318.15 K, m1 = 0.0902 | 846.4 | 0.4931
318.15 K, m1 = 0.1352 | 848.4 | 0.4977
318.15 K, m1 = 0.1802 | 850.4 | 0.5013
318.15 K, m1 = 0.2254 | 852.4 | 0.505
318.15 K, m1 = 0.272 | 854.5 | 0.5117
323.15 K, m1 = 0.0452 | 840.3 | 0.4593
323.15 K, m1 = 0.0902 | 842.3 | 0.4642
323.15 K, m1 = 0.1352 | 844.3 | 0.4669
323.15 K, m1 = 0.1802 | 846.3 | 0.4711
323.15 K, m1 = 0.2254 | 848.3 | 0.4753
323.15 K, m1 = 0.272 | 850.4 | 0.4817
328.15 K, m1 = 0.0452 | 835.7 | 0.4381
328.15 K, m1 = 0.0902 | 837.7 | 0.4432
328.15 K, m1 = 0.1352 | 839.7 | 0.4456
328.15 K, m1 = 0.1802 | 841.7 | 0.4497
328.15 K, m1 = 0.2254 | 843.7 | 0.4539
328.15 K, m1 = 0.272 | 845.8 | 0.463
333.15 K, m1 = 0.0452 | 831.6 | 0.4148
333.15 K, m1 = 0.0902 | 833.6 | 0.4198
333.15 K, m1 = 0.1352 | 835.6 | 0.4242
333.15 K, m1 = 0.1802 | 837.6 | 0.4269
333.15 K, m1 = 0.2254 | 839.6 | 0.429
333.15 K, m1 = 0.272 | 841.7 | 0.4342
